The molecules below were run on phosphorylation of Serine 473 in Akt (assay: In Vitro Phospho-Ser473 Akt Assay in MDA-MB-468 cells). Details: Homo sapiens, MDA-MB-468, read-out: IC50 values against mTOR, phospho-Ser473 Akt assay, MDA-MB-468 cells.
Assay type: cell-based
In the case of `COc1ccc(-c2ccc3c(N4CCOC[C@@H]4C)nc(N4CCOC[C@@H]4C)nc3n2)cc1CNC1CCCCCCC1` [Example 4bf], the IC50 is reported as less than 100 nM. `C[C@H]1COCCN1c1nc(N2CCOC[C@@H]2C)c2ccc(-c3ccc(CN4CC[C@@H](O)C4)cc3)nc2n1` [Example 4c] was tested, and the IC50 was less than 100 nM. In the case of `C[C@H]1COCCN1c1nc(N2CCOC[C@@H]2C)c2ccc(-c3ccc(CN4CC[C@H](O)C4)cc3)nc2n1` [Example 4d], the IC50 is reported as less than 100 nM. With `C[C@H]1COCCN1c1nc(N2CCOC[C@@H]2C)c2ccc(-c3ccc(CNC4CCOCC4)cc3)nc2n1` [Example 4e] the IC50 was less than 100 nM. `CCOCc1cccc(-c2ccc3c(N4CCOC[C@@H]4C)nc(N4CCOC[C@@H]4C)nc3n2)c1` [Example 4g] gave an IC50 of less than 300 nM. In the case of `C[C@H]1COCCN1c1nc(N2CCOC[C@@H]2C)c2ccc(-c3cccc(CNCCO)c3)nc2n1` [Example 4h], the IC50 is reported as less than 100 nM. `C[C@H]1COCCN1c1nc(N2CCOC[C@@H]2C)c2ccc(-c3cccc(CN)c3)nc2n1` [Example 4i] showed an IC50 of less than 100 nM. `C[C@H]1COCCN1c1nc(N2CCOC[C@@H]2C)c2ccc(-c3cccc(CNC4CC4)c3)nc2n1` [Example 4j] was tested, and the IC50 was less than 100 nM. In the case of `CC(C)NCc1cccc(-c2ccc3c(N4CCOC[C@@H]4C)nc(N4CCOC[C@@H]4C)nc3n2)c1` [Example 4k], the IC50 is reported as less than 100 nM. With `CNCc1cccc(-c2ccc3c(N4CCOC[C@@H]4C)nc(N4CCOC[C@@H]4C)nc3n2)c1` [Example 4l] the IC50 was less than 100 nM. `C[C@H]1COCCN1c1nc(N2CCOC[C@@H]2C)c2ccc(-c3cccc(CNC4CCOCC4)c3)nc2n1` [Example 4m] showed an IC50 of less than 100 nM. With `C[C@H]1COCCN1c1nc(N2CCOC[C@@H]2C)c2ccc(-c3cccc(CNCC4CC4)c3)nc2n1` [Example 4n] the IC50 was less than 100 nM. In the case of `COCCNCc1cccc(-c2ccc3c(N4CCOC[C@@H]4C)nc(N4CCOC[C@@H]4C)nc3n2)c1` [Example 4o], the IC50 is reported as less than 100 nM. With `C[C@H]1COCCN1c1nc(N2CCOC[C@@H]2C)c2ccc(-c3cccc(CNc4cc[nH]n4)c3)nc2n1` [Example 4p] the IC50 was less than 300 nM. Work on `C[C@H]1COCCN1c1nc(N2CCOC[C@@H]2C)c2ccc(-c3cccc(Cn4ccnc4)c3)nc2n1` [Example 4q] yielded an IC50 of less than 300 nM. For `C[C@H]1COCCN1c1nc(N2CCOC[C@@H]2C)c2ccc(-c3cccc(CN4CC[C@@H](O)C4)c3)nc2n1` [Example 4r], the IC50 was less than 100 nM. Work on `C[C@H]1COCCN1c1nc(N2CCOC[C@@H]2C)c2ccc(-c3cccc(CN4CC[C@H](O)C4)c3)nc2n1` [Example 4s] yielded an IC50 of less than 100 nM. In the case of `C[C@H]1COCCN1c1nc(N2CCOC[C@@H]2C)c2ccc(-c3ccc(F)c(CN)c3)nc2n1` [Example 4u], the IC50 is reported as less than 100 nM. For `CC(C)NCc1cc(-c2ccc3c(N4CCOC[C@@H]4C)nc(N4CCOC[C@@H]4C)nc3n2)ccc1F` [Example 4w], the IC50 was less than 100 nM. With `CNCc1cc(-c2ccc3c(N4CCOC[C@@H]4C)nc(N4CCOC[C@@H]4C)nc3n2)ccc1F` [Example 4x] the IC50 was less than 100 nM. In the case of `C[C@H]1COCCN1c1nc(N2CCOC[C@@H]2C)c2ccc(-c3ccc(F)c(CNC4CCOCC4)c3)nc2n1` [Example 4y], the IC50 is reported as less than 100 nM. For `C[C@H]1COCCN1c1nc(N2CCOC[C@@H]2C)c2ccc(-c3ccc(F)c(CNCC4CC4)c3)nc2n1` [Example 4z], the IC50 was less than 100 nM. In the case of `CC(=O)NCc1cccc(-c2ccc3c(N4CCOC[C@@H]4C)nc(N4CCOC[C@@H]4C)nc3n2)c1` [Example 5a], the IC50 is reported as less than 100 nM. Work on `COCC(=O)NCc1cccc(-c2ccc3c(N4CCOC[C@@H]4C)nc(N4CCOC[C@@H]4C)nc3n2)c1` [Example 5b] yielded an IC50 of less than 300 nM. Molecule `C[C@H]1COCCN1c1nc(N2CCOC[C@@H]2C)c2ccc(-c3cccc(CNC(=O)C4CC4)c3)nc2n1` [Example 5c] has an IC50 of less than 300 nM. In the case of `C[C@H]1COCCN1c1nc(N2CCOC[C@@H]2C)c2ccc(-c3cccc(CNC(=O)C4CCC4)c3)nc2n1` [Example 5e], the IC50 is reported as less than 300 nM. Molecule `C[C@H]1COCCN1c1nc(N2CCOC[C@@H]2C)c2ccc(-c3cccc(CNC(=O)C(F)(F)F)c3)nc2n1` [Example 5g] has an IC50 of less than 300 nM. With `C[C@H]1COCCN1c1nc(N2CCOC[C@@H]2C)c2ccc(-c3cccc(CN(C)C(=O)C(F)(F)F)c3)nc2n1` [Example 5n] the IC50 was less than 300 nM. `CC(=O)NCc1ccc(-c2ccc3c(N4CCOC[C@@H]4C)nc(N4CCOC[C@@H]4C)nc3n2)cc1` [Example 5q] showed an IC50 of less than 100 nM. With `COCC(=O)N(C)Cc1ccc(-c2ccc3c(N4CCOC[C@@H]4C)nc(N4CCOC[C@@H]4C)nc3n2)cc1` [Example 5s] the IC50 was less than 300 nM. Work on `C[C@H]1COCCN1c1nc(N2CCOC[C@@H]2C)c2ccc(-c3ccc(F)c(CNC(=O)C4CC4)c3)nc2n1` [Example 5v] yielded an IC50 of less than 300 nM. Molecule `C[C@H]1COCCN1c1nc(N2CCOC[C@@H]2C)c2ccc(-c3ccoc3CO)nc2n1` [Example 6a] has an IC50 of less than 300 nM. `CNCc1ccc(-c2ccc3c(N4CCOC[C@@H]4C)nc(N4CCOC[C@@H]4C)nc3n2)o1` [Example 7c] showed an IC50 of less than 100 nM. `CCNCc1ccc(-c2ccc3c(N4CCOC[C@@H]4C)nc(N4CCOC[C@@H]4C)nc3n2)o1` [Example 7d] gave an IC50 of less than 100 nM. Molecule `C[C@H]1COCCN1c1nc(N2CCOC[C@@H]2C)c2ccc(-c3ccc(CNC4CCOCC4)o3)nc2n1` [Example 7f] has an IC50 of less than 100 nM. Molecule `C[C@H]1COCCN1c1nc(N2CCOC[C@@H]2C)c2ccc(-c3ccc(CNCC4CC4)o3)nc2n1` [Example 7g] has an IC50 of less than 100 nM. In the case of `CC(C)NCc1ccc(-c2ccc3c(N4CCOC[C@@H]4C)nc(N4CCOC[C@@H]4C)nc3n2)o1` [Example 7k], the IC50 is reported as less than 100 nM. In the case of `C[C@H]1COCCN1c1nc(N2CCOC[C@@H]2C)c2ccc(-c3cccc(C(=O)NCCO)c3)nc2n1` [Example 8a], the IC50 is reported as less than 100 nM. Work on `COc1ccc(-c2ccc3c(N4CCOC[C@@H]4C)nc(N4CCOC[C@@H]4C)nc3n2)cc1C(=O)NCCO` [Example 8b] yielded an IC50 of less than 100 nM. Work on `COCc1cc(-c2ccc3c(N4CCOC[C@@H]4C)nc(N4CCOC[C@@H]4C)nc3n2)ccc1F` [Example 9a] yielded an IC50 of less than 300 nM. For `C[C@@H]1CN(c2nc(N3CCOC[C@@H]3C)c3ncc(-c4ccccc4)nc3n2)C[C@H](C)O1` [Example 12a], the IC50 was less than 100 nM. For `Cc1ccc(-c2cnc3c(N4CCOC[C@@H]4C)nc(N4CCOC[C@@H]4C)nc3n2)cc1` [Example 12c], the IC50 was less than 100 nM. `C[C@H]1COCCN1c1nc(N2CCOC[C@@H]2C)c2ncc(-c3ccccc3)nc2n1` [Example 12d] was tested, and the IC50 was less than 300 nM. With `C[C@H]1COCCN1c1nc(N2CCOC[C@@H]2C)c2ccc(-c3ccc(OCCN(C)C)nc3)nc2n1` [Example 13b] the IC50 was less than 300 nM. In the case of `COc1ccc(-c2ccc3c(N4CCOC[C@@H]4C)nc(N4CCOC[C@@H]4C)nc3n2)cc1C(N)=O` [Example 14b], the IC50 is reported as less than 100 nM. `COc1ccc(-c2ccc3c(N4CCOC[C@@H]4C)nc(N4CCCC[C@H]4C)nc3n2)cc1CO` [Example 18a] gave an IC50 of less than 100 nM. `COc1ccc(-c2ccc3c(N4CCOC[C@@H]4C)nc(N4CC[C@H](O)C4)nc3n2)cc1CO` [Example 18ab] was tested, and the IC50 was less than 300 nM. Molecule `COc1ccc(-c2ccc3c(N4CCOC[C@@H]4C)nc(N4CCC(N5CCOCC5)CC4)nc3n2)cc1CO` [Example 18ac] has an IC50 of less than 100 nM. For `COc1ccc(-c2ccc3c(N4CCOC[C@@H]4C)nc(N4CCC(N)CC4)nc3n2)cc1CO` [Example 18ad], the IC50 was less than 100 nM. Molecule `COc1ccc(-c2ccc3c(N4CCOC[C@@H]4C)nc(N4CC(C)CC(C)C4)nc3n2)cc1CO` (stereo partly shown) [Example 18ae] has an IC50 of less than 100 nM. With `COc1ccc(-c2ccc3c(N4CCOC[C@@H]4C)nc(N4CCC(C(F)(F)F)CC4)nc3n2)cc1CO` [Example 18af] the IC50 was less than 300 nM. `COC(=O)[C@@H]1CCCN1c1nc(N2CCOC[C@@H]2C)c2ccc(-c3ccc(OC)c(CO)c3)nc2n1` [Example 18ah] was tested, and the IC50 was less than 100 nM.

Same assay, conditions: Homo sapiens, MDA-MB-468, read-out: IC50 values against mTOR, phospho-Ser473 Akt assay, MDA-MB-468 cells, upper bound
Work on `C[C@H]1COCCN1c1nc(N2CCOC[C@@H]2C)c2ccc(-c3cccc(CS(C)(=O)=O)c3)nc2n1` [Example 4t] yielded an IC50 of less than 1000 nM. `C[C@H]1COCCN1c1nc(N2CCOC[C@@H]2C)c2ccc(-c3ccc(F)c(CNC4CC4)c3)nc2n1` [Example 4v] showed an IC50 of less than 1000 nM. Molecule `CC(C)C(=O)NCc1cccc(-c2ccc3c(N4CCOC[C@@H]4C)nc(N4CCOC[C@@H]4C)nc3n2)c1` [Example 5d] has an IC50 of less than 1000 nM. Work on `CC(C)CC(=O)NCc1cccc(-c2ccc3c(N4CCOC[C@@H]4C)nc(N4CCOC[C@@H]4C)nc3n2)c1` [Example 5f] yielded an IC50 of less than 1000 nM. In the case of `CC(=O)N(C)Cc1ccc(-c2ccc3c(N4CCOC[C@@H]4C)nc(N4CCOC[C@@H]4C)nc3n2)cc1` [Example 5r], the IC50 is reported as less than 1000 nM. `CC(=O)NCc1cc(-c2ccc3c(N4CCOC[C@@H]4C)nc(N4CCOC[C@@H]4C)nc3n2)ccc1F` [Example 5t] gave an IC50 of less than 1000 nM. `COCC(=O)NCc1cc(-c2ccc3c(N4CCOC[C@@H]4C)nc(N4CCOC[C@@H]4C)nc3n2)ccc1F` [Example 5u] showed an IC50 of less than 1000 nM. For `CC(C)C(=O)NCc1cc(-c2ccc3c(N4CCOC[C@@H]4C)nc(N4CCOC[C@@H]4C)nc3n2)ccc1F` [Example 5w], the IC50 was less than 1000 nM. `C[C@H]1COCCN1c1nc(N2CCOC[C@@H]2C)c2ccc(-c3ccc(F)c(CNC(=O)C4CCC4)c3)nc2n1` [Example 5x] showed an IC50 of less than 1000 nM. With `CC(C)CC(=O)NCc1cc(-c2ccc3c(N4CCOC[C@@H]4C)nc(N4CCOC[C@@H]4C)nc3n2)ccc1F` [Example 5y] the IC50 was less than 1000 nM. `C[C@H]1COCCN1c1nc(N2CCOC[C@@H]2C)c2ccc(-c3ccc(F)c(CNC(=O)C(F)(F)F)c3)nc2n1` [Example 5z] was tested, and the IC50 was less than 1000 nM. `C[C@H]1COCCN1c1nc(N2CCOC[C@@H]2C)c2ccc(-c3ccc(CNC4CC4)o3)nc2n1` [Example 7e] showed an IC50 of less than 1000 nM. With `C[C@H]1COCCN1c1nc(N2CCOC[C@@H]2C)c2ccc(-c3ccc(CNc4cc[nH]n4)o3)nc2n1` [Example 7i] the IC50 was less than 1000 nM. `C[C@H]1COCCN1c1nc(N2CCOC[C@@H]2C)c2ccc(-c3ccc(CNCC(N)=O)o3)nc2n1` [Example 7j] showed an IC50 of less than 1000 nM. In the case of `Cc1ccc(-c2cnc3c(N4CCOC[C@@H]4C)nc(N4C[C@@H](C)O[C@@H](C)C4)nc3n2)cc1` [Example 12b], the IC50 is reported as less than 1000 nM. `COC(=O)[C@@H]1C[C@@H](O)CN1c1nc(N2CCOC[C@@H]2C)c2ccc(-c3ccc(OC)c(CO)c3)nc2n1` [Example 18aa] was tested, and the IC50 was less than 1000 nM. For `COc1ccc(-c2ccc3c(N4CCOC[C@@H]4C)nc(N4CCC5CCCCC5C4)nc3n2)cc1CO` (stereo partly shown) [Example 18ag], the IC50 was less than 1000 nM. With `COc1ccc(-c2ccc3c(N4CCOC[C@@H]4C)nc(N4CCC(N5CCCC5)CC4)nc3n2)cc1CO` [Example 18ai] the IC50 was less than 1000 nM.
